Read-outs that look alike come from different tables or passages of the source.
What was measured:
[1] = Stability of labeling substances and substrates in 0.1 M HEPES at 37° C., cyclic voltammetric measurement; assay type: physicochemical; settings: for relative value of height of oxidation peak in voltammogram of free molecule (0 hours = 100%): 1.0 mM in 0.1 M HEPES pH 7.8, 37° C., light-shielded; for change of detected value in 2 hours after preparation: 0.1 M HEPES pH 7.8, 37° C.
Experimental: The labeling substances (pAP, MPDD, and DMPD) and the substrates for measurement (LGR-pAP, LGR-MPDD, LGR-DMPD) were dissolved into 0.1 M HEPES (pH 7.8) and prepared to be 1 mM, and were left to stand for 1 to 24 hours in an incubator at 37° C. Thereafter, a test was performed according to the following procedures.
As an electrochemical measurement method, cyclic voltammetry and a potential step chronoamperometric method were used. As a measuring device, a working electrode, a reference electrode, and a counter electrode, those described in <Measurement Conditions> below were used. In each measurement, the working electrode, the reference electrode, and the counter electrode were inserted in a solution, and respectively connected to connectors of a potentiostat for a working electrode, a reference electrode, and a counter electrode. After each measurement, the electrode surface of the working electrode was polished with […] polishing alumina, and cleaned with ultrapure water. In the cyclic voltammetric measurement, potential scanning was performed by setting an initial potential and a finish potential to 0 V, a first turnover potential to 0.4 V (0.6 V for LGR-pAP and LGR-DMPD, 0.7 V for LGR-MPDD), and a second turnover potential to −0.2 V, and the current was monitored. In the potential step chronoamperometric measurement, after 0.0 V was applied to the working electrode for 10 seconds, the potential was momentarily changed to 0.3 V, and the current was monitored for 35 seconds.
50 ml of test solutions (1.0 mM) of the respective substrates (LGR-pAP, LGR-MPDD, LGR-DMPD) and free molecules (pAP, MPDD, DMPD) were prepared by using 0.1 M HEPES (pH=7.8), put in a disposable 50 ml centrifuge tube (manufactured by IWAKI), and left to stand at 37° C. under light-shielded conditions. When a predetermined time (0.5 h, 1 h, 2 h, 4 h, and 24 h) elapsed, 5 ml was sampled from the test solution and subjected to cyclic voltammetric measurement. MPDD was measured when 6 hours and 8 hours elapsed as well. By using a test solution just after preparation, a measurement at a predetermined time of 0 hours was performed.

[2] = Evaluation of quantitative performance: cyclic voltammetry and chronoamperometry of substrate / free molecule mixed solutions; assay type: physicochemical; settings: mixed solution of substrate and free molecule, 0.1 M HEPES pH 7.8, vs. Ag/AgCl
Source text: As a result of performing a cyclic voltammetric measurement in which the mixture ratio of a substrate and free molecule (labeling substance) was varied in stages, in a voltammogram of a mixed solution of LGR-pAP and pAP, two oxidation peaks at 0.15 V and 0.49 V were confirmed. From individual voltammograms of a substrate molecule and a free molecule, the peak near 0.49 V is considered to be derived from oxidation of LGR-pAP, and the peak near 0.15 V is considered to be derived from oxidation of pAP. Similarly, from a voltammogram of a mixed solution of LGR-DMPD and DMPD, an oxidation peak derived from LGR-DMPD was confirmed near 0.45V, and an oxidation peak derived from DMPD was confirmed near 0.19 V. Further, from a voltammogram of a mixed solution of LGR-MPDD and MPDD, an oxidation peak derived from LGR-MPDD was confirmed near 0.46 V, and an oxidation peak derived from MPDD was confirmed near 0.14 V. Further, when using any substrate, an oxidation peak current value of free molecules increased as the percentage of a free molecule increased. From these facts, it was considered that a concentration of free molecules in each mixed solution could be amperometrically quantified at a potential of 0.3 V vs. Ag/AgCl. Next, in each mixed solution, chronoamperometry was performed. […]
As an electrochemical measurement method, cyclic voltammetry and a potential step chronoamperometric method were used. […] In the cyclic voltammetric measurement, potential scanning was performed by setting an initial potential and a finish potential to 0 V, a first turnover potential to 0.4 V (0.6 V for LGR-pAP and LGR-DMPD, 0.7 V for LGR-MPDD), and a second turnover potential to −0.2 V, and the current was monitored. In the potential step chronoamperometric measurement, after 0.0 V was applied to the working electrode for 10 seconds, the potential was momentarily changed to 0.3 V, and the current was monitored for 35 seconds. […]

[3] = tested on: Limulus reagent Endospecy ES-24S; settings: FIG. 8 of Patent Literature 1; cited from earlier work
[4] = 1 mM; FIG. 4 of Patent Literature 1; cited from earlier work
[5] = tested on: Limulus reagent Endospecy ES-24S; assay: Limulus test (2): endotoxin measurement by voltammetric method using labeled substrates; assay type: biochemical; settings: substrate for measurement 0.5 mM
Experimental: Limulus tests using the substrates for measurement acquired in <Reference Example 1> described above were performed, and measurements of endotoxin were performed by a voltammetric method. The test procedures are shown below.
The same conditions as those described in <Limulus Reaction> of <Example 2> described above were applied except that a cyclic voltammetric measurement was performed instead of the chronoamperometric measurement.
The same conditions as described in <Measurement Conditions> of <Example 1> above were applied.

[6] = 0 hours (just after preparation)

Nc1ccc(O)cc1 [pAP, P-aminophenol, reference compound]
relative value of height of oxidation peak in voltammogram of free molecule (0 hours = 100%) [1, 6]: 100.0% | relative value of height of oxidation peak in voltammogram of free molecule (0 hours = 100%) ([1]; 0.5 h): 94.2% | relative value of height of oxidation peak in voltammogram of free molecule (0 hours = 100%) ([1]; 1 h): 95.0% | relative value of height of oxidation peak in voltammogram of free molecule (0 hours = 100%) ([1]; 2 h): 83.0% | change of detected value in 2 hours after preparation [1]: showed a tendency to successively decrease | oxidation peak potential in cyclic voltammogram [2]: ~0.15 V

COc1ccc(N)cc1 [pMA, para methoxyaniline]
Measured value B: maximum value of oxidation peak current value in Limulus test with substrate (labeling substance bonded to LGR) [3]: 0.28 μA | oxidation peak current value of labeling substance itself [4]: approximately 3.0 μA

CN(C)c1ccc(N)cc1 [DMPD, N, N-dimethyl-p-phenylenediamine]
relative value of height of oxidation peak in voltammogram of free molecule (0 hours = 100%) [1, 6]: 100.0% | relative value of height of oxidation peak in voltammogram of free molecule (0 hours = 100%) ([1]; 0.5 h): 95.3% | relative value of height of oxidation peak in voltammogram of free molecule (0 hours = 100%) ([1]; 1 h): 94.3% | relative value of height of oxidation peak in voltammogram of free molecule (0 hours = 100%) ([1]; 2 h): 84.5% | change of detected value in 2 hours after preparation [1]: showed a tendency to successively decrease | Measured value B: maximum value of oxidation peak current value in Limulus test with substrate (labeling substance bonded to LGR) [5]: 0.31 μA | oxidation peak potential in cyclic voltammogram [2]: ~0.19 V

CNc1ccc(N)cc1 [MPDD, N-methyl-p-phenylenediamine]
relative value of height of oxidation peak in voltammogram of free molecule (0 hours = 100%) [1, 6]: 100.0% | relative value of height of oxidation peak in voltammogram of free molecule (0 hours = 100%) ([1]; 0.5 h): 102.4% | relative value of height of oxidation peak in voltammogram of free molecule (0 hours = 100%) ([1]; 1 h): 102.3% | relative value of height of oxidation peak in voltammogram of free molecule (0 hours = 100%) ([1]; 2 h): 101.0% | change of detected value in 2 hours after preparation [1]: no decrease | Measured value B: maximum value of oxidation peak current value in Limulus test with substrate (labeling substance bonded to LGR) [5]: 0.60 μA | oxidation peak potential in cyclic voltammogram [2]: ~0.14 V
